# Source: US8772323B2, “Benzoxazole- and tetrahydrobenzoxazole-substituted pyridazinones as GPR119 agonists” (Boehringer Ingelheim International GmbH, priority 2010, dated 2014)
# Where a name gives a salt, the structure may show the parent alone.
# Target: human GPR119 (Homo sapiens (Human), UniProt Q8TDV5)
# Experiment: AlphaScreen cAMP assay in Min-6/hGPR119 cells (GPR119 activation, intracellular cAMP)
# Type: cell-based
# Conditions: MIN6 cells stably transfected with human GPR119; 45 minutes' incubation at RT; AlphaScreen cAMP Assay Kit
# Description: The compounds of formula I according to the invention are GPR119 agonists. The effect of the compounds on the activation of GPR119 and on the stimulation of intracellular cAMP concentration is determined using the AlphaScreen cAMP Assay Kit (Cat. No. #6760625R) made by PerkinElmer.
# MIN6 cells [Miyazaki J et al. Endocrinology. 1990 July; 127(1):126-32] were stably transfected with an expression vector for human GPR119 cDNA (Acc. No. NP_848566). Min-6/hGPR119 cells are cultured in DMEM, 10% FBS, 50 μM β-mercaptoethanol, 0.3 mg/mL Geniticin, 2 mM GlutaMAX at 37° C. 5% CO2. For the assay, the cells are placed in Optiplates (white, 384-well, 160W-barcoded, TC, sterile with lid, Cat. No. #6007688 (Perkin Elmer); 10000 cells/well; 50 μl). The plates covered with lids are then incubated for 24 hours at 37° C./5% CO2.
# After the medium has been sucked out of the wells completely, 10 μl of the test compound are added, the compounds are diluted beforehand with stimulating buffer (140 mM NaCl, 3.6 mM KCl, 0.5 mM NaH2PO4, 0.5 mM MgSO4, 1.5 mM CaCl2, 10 mM Hepes, 5 mM NaHCO3; pH 7.4. 0.5 mM IBMX and 0.1% BSA, the final DMSO concentration is 1%). After 45 minutes' incubation at RT, the cAMP concentrations are determined using the AlphaScreen cAMP Assay Kit (Cat. No. #6760625R from PerkinElmer).
# Chain of human GPR119 (Q8TDV5 whole entry): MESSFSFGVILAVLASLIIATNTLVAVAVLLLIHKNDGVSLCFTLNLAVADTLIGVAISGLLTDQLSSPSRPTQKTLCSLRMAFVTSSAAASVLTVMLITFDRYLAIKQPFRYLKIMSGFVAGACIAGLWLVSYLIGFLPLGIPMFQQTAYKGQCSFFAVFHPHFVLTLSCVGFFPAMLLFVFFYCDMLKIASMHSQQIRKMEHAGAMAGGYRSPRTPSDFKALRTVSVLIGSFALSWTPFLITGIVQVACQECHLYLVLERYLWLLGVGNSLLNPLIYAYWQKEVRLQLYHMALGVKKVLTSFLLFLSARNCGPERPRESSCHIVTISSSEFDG
row,EC50 [nM],SMILES
1,552,"CCC1CC(=O)NN=C1c1ccc2nc(-c3ccc(OCCN4C[C@H]5CC[C@@H]4C5)cc3)oc2c1 (stereo partly drawn) [Example 164, 6-(2-{4-[2-(2-aza-bicyclo[2.2.1]-hept-2-yl)-ethoxy]-phenyl}-benzoxazol-6-yl)-5-ethyl-4,5-dihydro-2H-pyridazin-3-one]"
2,384,"CCC1CC(=O)NN=C1c1ccc2nc(-c3ccc(/C=C/c4ccccc4)cc3)oc2c1 (stereo not drawn) [Example 75, 5-ethyl-6-{2-[4-styryl-phenyl]-benzoxazol-6-yl}-4,5-dihydro-2H-pyridazin-3-one]"
3,1810,"CCC1CC(=O)NN=C1c1ccc2nc(-c3ccc(OC4CCNCC4)cc3)oc2c1 (stereo not drawn) [Example 72, 5-ethyl-6-{2-[4-(piperidin-4-yloxy)-phenyl]-benzoxazol-6-yl}-4,5-dihydro-2H-pyridazin-3-one hydrochloride]"
4,186,"CCC1CC(=O)NN=C1c1ccc2nc(-c3ccc(OC[C@@H]4CCCN4C(C)C)cc3)oc2c1 (stereo partly drawn) [Example 240, 5-ethyl-6-{2-[4-(1-isopropyl-5-pyrrolidin-2-yl-methoxy)-phenyl]-benzoxazol-6-yl}-4,5-dihydro-2H-pyridazin-3-one]"
5,8950,"COC(=O)c1cccc(-c2nc3ccc(-c4n[nH]c(=O)cc4C)cc3o2)c1 [Example 254, methyl 3-[6-(4-methyl-6-oxo-1,6-dihydro-pyridazin-3-yl)-benzoxazol-2-yl]-benzoate]"
6,890,"CC1CC(=O)NN=C1c1ccc2nc(-c3cccc(O)c3)oc2c1 (stereo not drawn) [Example 38, 6-[2-(3-hydroxy-phenyl)-benzoxazol-6-yl]-5-methyl-4,5-dihydro-2H-pyridazin-3-one]"
7,> 10000,"CCC1CC(=O)NN=C1c1ccc2nc(-c3ccc(OCC4CCNCC4)cc3)oc2c1 (stereo not drawn) [Example 71, 4-{4-[6-(4-ethyl-6-oxo-1,4,5,6-tetrahydro-pyridazin-3-yl)-benzoxazol-2-yl]-phenoxymethyl}-piperidine as hydrochloride]"
8,223,"CCC1CC(=O)NN=C1c1ccc2nc(-c3ccc(OCc4nc(C(C)C)no4)cc3)oc2c1 (stereo not drawn) [Example 50, 5-ethyl-6-{2-[4-(3-isopropyl-[1,2,4]oxadiazol-5-ylmethoxy)-phenyl]-benzoxazol-6-yl}-4,5-dihydro-2H-pyridazin-3-one]"
9,306,"CC[C@@H]1C(=O)NN=C(c2ccc3nc(-c4ccccc4)oc3c2)[C@H]1C (relative stereo) [Example 126, trans-4-ethyl-5-methyl-6-(2-phenyl-benzoxazol-6-yl)-4,5-dihydro-2H-pyridazin-3-one]"
10,189,"CC1CC(=O)NN=C1c1ccc2nc(-c3ccccc3)oc2c1 (stereo not drawn) [Example 82, 5-methyl-6-(2-phenyl-benzoxazol-6-yl)-4,5-dihydro-2H-pyridazin-3-one]"
11,112,"CCC1CC(=O)NN=C1c1ccc2nc(-c3ccc(OCC(=O)OC(C)(C)C)cc3)oc2c1 (stereo not drawn) [Example 66, tert-butyl {4-[6-(4-ethyl-6-oxo-1,4,5,6-tetrahydro-pyridazin-3-yl)-benzoxazol-2-yl]-phenoxy}-acetate]"
12,143,"CC1CC(=O)NN=C1c1ccc2nc(-c3cccc(OCC4CCN(C(=O)OC(C)(C)C)CC4)c3)oc2c1 (stereo not drawn) [Example 69, tert-butyl 4-{3-[6-(4-methyl-6-oxo-1,4,5,6-tetrahydro-pyridazin-3-yl)-benzoxazol-2-yl]-phenoxymethyl}-piperidin-1-carboxylate]"
13,639,"CCC1CC(=O)NN=C1c1ccc2nc(-c3cccc(OCCN4CC(C)OC(C)C4)c3)oc2c1 (stereo not drawn) [Example 216, 6-(2-{3-[2-(2,6-dimethyl-morpholin-4-yl)-ethoxy]-phenyl}-benzoxazol-6-yl)-5-ethyl-4,5-dihydro-2H-pyridazin-3-one]"
14,755,"CCC[C@@H]1C(=O)NN=C(c2ccc3nc(-c4ccc(OCCCN5CCCCC5)cc4)oc3c2)[C@H]1C (relative stereo) [Example 172, trans-5-methyl-6-{2-[4-(3-piperidin-1-yl-propoxy)-phenyl]-benzoxazol-6-yl}-4-propyl-4,5-dihydro-2H-pyridazin-3-one]"
15,189,"CCCOc1ccc(-c2nc3ccc(C4=NNC(=O)CC4CC)cc3o2)cc1 (stereo not drawn) [Example 52, 5-ethyl-6-[2-(4-propoxy-phenyl)-benzoxazol-6-yl]-4,5-dihydro-2H-pyridazin-3-one]"
16,88,"CC[C@H]1C(c2ccc3nc(-c4ccc(OC(C)C)cc4)oc3c2)=NNC(=O)[C@@H]1C [Example 208, (4R,5R)-5-ethyl-4-methyl-6-{2-[4-(propan-2-yloxy)phenyl]-1,3-benzoxazol-6-yl}-2,3,4,5-tetrahydropyridazin-3-one]"
17,122,"CCC1CC(=O)NN=C1c1ccc2nc(-c3ccc(OCCOC)cc3)oc2c1 (stereo not drawn) [Example 214, 5-ethyl-6-{2-[4-(2-methoxy-ethoxy)-phenyl]-benzoxazol-6-yl}-4,5-dihydro-2H-pyridazin-3-one]"
18,7240,"Cc1cc(=O)[nH]nc1-c1ccc2nc(-c3ccc(C(=O)O)cc3)oc2c1 [Example 255, 4-[6-(4-methyl-6-oxo-1,6-dihydro-pyridazin-3-yl)-benzoxazol-2-yl]-benzoic acid]"
19,539,"CC1NC(=O)NN=C1c1ccc2nc(-c3ccccc3)oc2c1 (stereo not drawn) [Example 142, 5-methyl-6-(2-phenyl-benzoxazol-6-yl)-4,5-dihydro-2H-[1,2,4]triazin-3-one]"
20,134,"CCC1CC(=O)NN=C1c1ccc2nc(-c3ccc(N4CCOCC4)cc3)oc2c1 (stereo not drawn) [Example 177, 5-ethyl-6-[2-(4-morpholin-4-yl-phenyl)-benzoxazol-6-yl]-4,5-dihydro-2H-pyridazin-3-one]"

# The next lines start with the compound.
row,SMILES,EC50 [nM]
1,"Cc1ccc(-c2nc3ccc(C4=NNC(=O)[C@@H](C)[C@H]4C)cc3o2)s1 [Example 24, (4S,5R)-4,5-dimethyl-6-[2-(5-methyl-thiophen-2-yl)-benzoxazol-6-yl]-4,5-dihydro-2H-pyridazin-3-one]",5100
2,"CCC1CC(=O)NN=C1c1ccc2nc(-c3ccc(OCC4CCCCN4C)cc3)oc2c1 (stereo not drawn) [Example 233, 5-ethyl-6-{2-[4-(1-methyl-2-piperidin-2-yl-methoxy)-phenyl]-benzoxazol-6-yl}-4,5-dihydro-2H-pyridazin-3-one]",848
3,"CCC[C@H]1C(=O)NN=C(c2ccc3nc(-c4ccc(F)cc4)oc3c2)[C@@H]1C (relative stereo) [Example 182, trans-6-[2-(4-fluoro-phenyl)-benzoxazol-6-yl]-5-methyl-4-propyl-4,5-dihydro-2H-pyridazin-3-one]",116
4,"CCC1CC(=O)NN=C1c1ccc2nc(-c3ccc(OC4CCOCC4)cc3)oc2c1 (stereo not drawn) [Example 105, 5-ethyl-6-{2-[4-(tetrahydro-pyran-4-yloxy)-phenyl]-benzoxazol-6-yl}-4,5-dihydro-2H-pyridazin-3-one]",80
5,"CCCC1CCN(CCOc2ccc(-c3nc4ccc(C5=NNC(=O)CC5CC)cc4o3)cc2)CC1 (stereo not drawn) [Example 244, 5-ethyl-6-(2-{4-[2-(4-propyl-piperidin-1-yl)-ethoxy]-phenyl}-benzoxazol-6-yl)-4,5-dihydro-2H-pyridazin-3-one]",181
6,"CCC1CC(=O)NN=C1c1ccc2nc(-c3ccc(OC[C@H]4CCCN4)cc3)oc2c1 (stereo partly drawn) [Example 239, 5-ethyl-6-(2-{4-[(2R)-pyrrolidin-2-ylmethoxy]phenyl}-1,3-benzoxazol-6-yl)-2,3,4,5-tetrahydropyridazin-3-one]",1650
7,"Cc1cc(C2=NNC(=O)C3CC23)cc2oc(-c3ccccc3)nc12 (stereo not drawn) [Example 11, 5-(4-methyl-2-phenyl-benzoxazol-6-yl)-3,4-diaza-bicyclo[4.1.0]hept-4-en-2-one]",> 10000
8,"CC[C@@H]1CC(=O)NN=C1c1ccc2nc(-c3ccc(OCC(C)N4CCCCC4)cc3)oc2c1 (stereo partly drawn) [Example 237, 5(R)-ethyl-6-{2-[4-(2-piperidin-1-yl-propoxy)-phenyl]-benzoxazol-6-yl}-4,5-dihydro-2H-pyridazin-3-one]",73
9,"CCC1CC(=O)NN=C1c1ccc2nc(-c3ccc(OCCN4C(C)(C)CCCC4(C)C)cc3)oc2c1 (stereo not drawn) [Example 58, 5-ethyl-6-(2-{4-[2-(2,2,6,6-tetramethyl-piperidin-1-yl)-ethoxy]-phenyl}-benzoxazol-6-yl)-4,5-dihydro-2H-pyridazin-3-one]",76
10,"CCC1CC(=O)NN=C1c1ccc2nc(-c3ccc(OCc4ccc(S(C)(=O)=O)cc4)cc3)oc2c1 (stereo not drawn) [Example 158, 5-ethyl-6-{2-[4-(4-methanesulphonyl-benzoxy)-phenyl]-benzoxazol-6-yl}-4,5-dihydro-2H-pyridazin-3-one]",1960
11,"O=C1NN=C(c2ccc3nc(-c4cccc(F)c4)oc3c2)C2CC12 (stereo not drawn) [Example 17, 5-[2-(3-fluoro-phenyl)-benzoxazol-6-yl]-3,4-diaza-bicyclo[4.1.0]hept-4-en-2-one]",223
12,"CCC1CC(=O)NN=C1c1ccc2nc(-c3ccc(OC[C@H]4CCCN4C(C)C)cc3)oc2c1 (stereo partly drawn) [Example 241, 5-ethyl-6-{2-[4-(1-isopropyl-R-pyrrolidin-2-yl-methoxy)-phenyl]-benzoxazol-6-yl}-4,5-dihydro-2H-pyridazin-3-one]",191
13,CCC1CC(=O)NN=C1c1ccc2nc(-c3ccc(OC[C@H]4CCCN4C(=O)OC(C)(C)C)cc3)oc2c1 (stereo partly drawn) [Example 227],52
